Laboratory results published in patent US20230341404A1, “TARGETING STROMA-CANCER INTERACTIONS IN CANCER” (The Regents of the University of California, priority 2022, published 2023).

Key:
KPC cells [1] = assay: macropinocytosis and mitochondria in KPC cells on ECM from Ilomastat-treated fibroblasts; type: cell-based, mouse; conditions: ECM from Ilomastat-treated wild-type fibroblasts, LG medium, 24 h
Procedure: FIGS. 12A-12M: Inhibition of Col I cleavage shuts down NRF2-driven macropinocytosis and mitochondrial biogenesis. FIG. 12A, MP and mitochondria in KPC cells plated on indicated ECM and incubated in LG for 24 h. Col IIB in indicated ECM preparations is shown on the right. FIG. 12B, IB of indicated proteins in above cells. FIG. 12C, MP and mitochondria in indicated KPC cells plated on R/R Col I^Δ ECM and incubated in LG for 24 h. FIG. 12D, LB of indicated proteins in 1305 cells plated on ECM produced by bacterial collagenase (CLG, 50 μg/ml) treated or untreated fibroblasts and incubated in LG medium −/+CLG for 24 h. FIG. 12E, Genes differentially expressed between KPC cells plated on indicated ECM. Light gray: replicates with low expression (z-score=−2); dark gray: replicates with high expression (z-score=+2). […] Quantitation on the right. […] Statistical significance determined by two-tailed t-test. ***P<0.001, ****P<0.0001. […]
Cells were cultured on coverslips coated with or without ECM and fixed in 4% paraformaldehyde for 10 min at room temperature or methanol for 10 min at —20° C. […] Images were captured and analysed using a TCS SPE Leica confocal microscope with Leica Application Suite AF 2.6.0.7266 software (Leica).
Macropinosomes or mitochondria were quantified by using the ‘Analyze Particles’ feature in Image J (NIH). […] Kaplan—Meier survival curves were analysed by log-rank test. […]

KPC cells [2] = assay: cell viability with tigecycline; type: cell-based, mouse; conditions: parental cells on wild-type ECM versus R/R ECM or DDR1^KD cells on wild-type ECM, LG medium
Procedure: (§1) FIGS. 14A-14J: Effect of macropinocytosis and mitochondria on Col I-controlled PDAC cell growth. FIG. 14A, Bromodeoxyuridine (BrdU) incorporation into KPC cells plated on ECM mixtures produced by R/R and WT fibroblasts (R:W). Scale bars, 10 μm. FIG. 14B, FIG. 14C, Paren. and IKKα^KD KPC (FIG. 14B) or KC (FIG. 14C) cells were plated −/+ WT or R/R ECM and incubated in LG −/+ indicated reagents. Viable cells were measured after 3 days and depicted relative to untreated plastic-plated Paren. cells. (FIG. 14C). IKKα KD efficiency is shown on the right (FIG. 14B). […] Total viable cells were measured as above and are presented relative to the untreated cells. FIG. 14H, Mitochondrial ATP production calculated from FIG. 6B. […] Quantification of the SR positive area is shown on the left. […] Statistical significance determined by two-tailed t-test. […]
(§2) Cells were plated in 96-well plates coated with or without ECM at a density of 3,000 cells (MIA, 1305) or 1,500 cells (KPC or KC) per well and incubated overnight before treatment. […] Cell viability was determined with a Cell Counting Kit-8 assay (Glpbio). Optical density was read at 450 nm and analysed using a microplate reader with SoftMax 6.5 software (FilterMax F5, Molecular Devices). […]

1305 cells = assay: cell viability with tigecycline; type: cell-based, human; conditions: parental cells on wild-type ECM versus R/R ECM or DDR1^KD cells on wild-type ECM, LG medium, 24 h
Procedure: as §1, §2

| SMILES | behaviour of ECM from treated fibroblasts (macropinocytosis, mitochondria) (KPC cells [1]) | sensitivity to tigecycline (viable cells) (KPC cells [2]) | sensitivity to tigecycline (viable cells) (1305 cells) |
| --- | --- | --- | --- |
| CNC(=O)[C@H](Cc1c[nH]c2ccccc12)NC(=O)[C@@H](CC(=O)NO)CC(C)C [Ilomastat] | behaved like R/R ECM | – | – |
| CN(C)c1cc(NC(=O)CNC(C)(C)C)c(O)c2c1C[C@H]1C[C@H]3[C@H](N(C)C)C(O)=C(C(N)=O)C(=O)[C@@]3(O)C(O)=C1C2=O [tigecycline] | – | more sensitive | more sensitive |
